Measurements taken from patent US20240261242A1, “METHODS OF INTRAVENOUSLY ADMINISTERING SOTALOL” (AltaThera Pharmaceuticals LLC, priority 2018, published 2024).

Experiments:
[1] = example IV sotalol treatment protocols with QTc interval monitoring; assay type: in vivo, human
Experimental: An example sotalol treatment protocol for a patient experiencing AF and who is currently in normal sinus rhythm (which patient could have resumed normal sinus rhythm spontaneously, or by way of chemical cardioversion, or electrocardioversion) is described herein. The patient is admitted to a hospital or other facility capable of providing cardiac resuscitation and continuous electrocardiographic monitoring. The patient's creatinine clearance is determined to be 60-89 mL/min (mild renal impairment). The patient is connected to an electrocardiographic and an initial QTc is determined to be less than 450 ms. If the patient were to be administered multiple sequential oral doses, the physician would have selected an oral sotalol dosing regimen of 80 mg at a 12-hour interval. However, due to the patient's NPO status, the physician determines the patient should instead be administered an IV sotalol dosing regimen as a substitute for the selected oral dosing regimen. IV doses in an amount of 75 mg sotalol hydrochloride are administered to the patient at 12-hour interval as a substitute for oral dosing. It is noted that notwithstanding the patient's mild kidney impairment, no adjustment to the IV dosing amount or interval is made. That is, even though the patient's CrCl is lower than normal, neither the dose is adjusted lower nor the dosing interval increased to accommodate for the mild renal impairment. The 75 mg IV dose is administered to the patient over a period of 5 hours. The patient's QTc interval is measured, along with heart rate and blood pressure at selected times to ensure that the patient is tolerating the drug. […] Once it is determined that the patient/subject is capable of tolerating the sotalol, one or more subsequent doses of sotalol hydrochloride in an amount of 75 mg is administered to the subject at a 12-hour interval. The patient's QTc interval can continue to be monitored.
An example sotalol treatment protocol for a patient experiencing VT who is not currently in normal sinus rhythm is described herein. The patient is admitted to a hospital or other facility capable of providing cardiac resuscitation and continuous electrocardiographic monitoring. The patient's creatinine clearance is determined to be 10-29 mL/min (severe renal impairment). The patient is connected to an electrocardiographic and an initial QTc is determined to be less than 450 ms. If the patient were to be administered multiple sequential oral doses, the physician would have selected an oral sotalol dosing regimen of 120 mg at a 48-hour interval. However, the physician determines the patient should instead be administered an IV sotalol dosing regimen as a substitute for the selected oral dosing regimen. IV doses in an amount of 105 mg sotalol hydrochloride are administered to the patient at 48-hour interval as a substitute for oral dosing. The 105 mg IV dose is administered to the patient over a period of 5 hours. The patient's QTc interval is measured, along with heart rate and blood pressure at selected times to ensure that the patient is tolerating the drug. […] Once it is determined that the patient/subject is capable of tolerating the sotalol, one or more subsequent doses of sotalol hydrochloride in an amount of 105 mg is administered to the subject at a 48-hour interval. The patient's QTc interval can continue to be monitored.
An example sotalol treatment protocol for a patient with atrial flutter (AFL) and persistent atrial fibrillation who is not currently in normal sinus rhythm is described herein. The patient is admitted to a hospital or other facility capable of providing cardiac resuscitation and continuous electrocardiographic monitoring. The patient's creatinine clearance is determined to be ≥90 mL/min. The patient is connected to an electrocardiographic and an initial QTc is determined to be less than 450 ms. […]

[2] = cited from earlier work
[3] = cited from earlier work; remark: listed apart in the source
[4] = Example 2: 75 mg IV over 5 hours at 12-hour interval, CrCl 60-89 mL/min, AF patient in sinus rhythm
[5] = Example 5: 105 mg IV over 5 hours at 48-hour interval, CrCl 10-29 mL/min, VT patient
[6] = Example 6: 150 mg IV over 5 hours at 12-hour interval, CrCl ≥90 mL/min, AFL and persistent AF patient
[7] = Example 7: 112.5 mg IV over 5 hours at 12-hour interval, then escalated to 150 mg, CrCl 60-89 mL/min, PVC patient

In the case of `CC(C)NCC(O)c1ccc(NS(C)(=O)=O)cc1.Cl` (centres unmarked) [sotalol hydrochloride, d,1-N-[4-[1-hydroxy-2-[(1-methylethyl)amino]ethyl]phenyl] methane-sulfonamide monohydrochloride], the QTc interval [1, 4] is reported as no more than 500 ms, the ΔQTc [1, 4] is reported as “less than 20%” and the QTc interval [1, 5] is reported as no more than 500 ms. For the same molecule, the ΔQTc [1, 5] was “less than 20%”, the QTc interval [1, 6] was no more than 500 ms and the ΔQTc [1, 6] was “less than 20%”. The QTc interval [1, 7] was no more than 500 ms, the ΔQTc [1, 7] was “less than 20%” and the “time to steady-state plasma levels and maximum QTc prolongation” value ([2]; oral administration, twice daily (after 5-6 doses)) was 3 days. For the same molecule, the bioavailable ([2]; oral, taken on an empty stomach) was roughly 100% and the solubility [3] was “soluble in water, propylene glycol, and ethanol”.
